Test results from the supplement of paper PMC10307832.

Experiments:
[1] = compound: C[C@@]1(C(=O)Nc2ccc(F)nc2)CCCN1c1nc(Nc2cc(C3CC3)n[nH]2)c2cccn2n1 + Cc1cc(Nc2cc(N3CCN(C)CC3)nc(Sc3ccc(NC(=O)C4CC4)cc3)n2)n[nH]1 [Tozasertib] (partner 0.1 µM); assay: relative viability (nuclei count vs DMSO), 5 days (fraction); higher = more cells survive
Outline: (§1)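 Relative viability divides the nuclei count in treated wells by that in vehicle wells. Lung cancer cell lines were seeded in 1536-well plates, dosed by pin tool the next day, and fixed and stained after 5 days in one step with final 0.05% Triton X-100, 1% formaldehyde and 1 ug/ml Hoechst. Dosing was a single drug or a fixed anchor-drug dose plus five library-drug doses (not always all listed) in √10 steps, and values are medians of duplicate plates imaged at 4×.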

[2] = compound: CC1(C)CNc2cc(NC(=O)c3cccnc3NCc3ccncc3)ccc21 [Motesanib] + COc1cc2c(Oc3ccc(NC(=O)C4(C(=O)Nc5ccc(F)cc5)CC4)cc3F)ccnc2cc1OCCCN1CCOCC1 [Foretinib] (partner 0.25 µM); assay: as above
Outline: as §1

Cell Line | relative viability ([1]; first compound 0.04 µM) | relative viability ([1]; first compound 0.1265 µM) | relative viability ([1]; first compound 0.4 µM) | relative viability ([1]; first compound 1.265 µM) | relative viability ([2]; first compound 0.01 µM) | relative viability ([2]; first compound 0.03162 µM) | relative viability ([2]; first compound 0.1 µM) | relative viability ([2]; first compound 0.3162 µM) | relative viability ([2]; first compound 1 µM)
NCI-H1975 | 0.682 | 0.646 | 0.513 | 0.316 | 0.978 | 0.9 | 0.908 | 0.898 | 0.899
CAL-12T | 0.249 | 0.27 | 0.275 | 0.189 | 1.13 | 1.19 | 1.2 | 1.19 | 1.12
NCI-H1623 | 0.391 | 0.397 | 0.349 | 0.371 | 0.869 | 0.889 | 0.763 | 0.871 | 0.873
HCC-44 | 0.858 | 0.616 | 0.574 | 0.362 |  |  |  |  | 
EKVX | 0.363 | 0.349 | 0.259 | 0.28 | 0.744 | 0.902 | 0.743 | 0.82 | 0.921
NCI-H1651 | 0.639 | 0.633 | 0.449 | 0.537 | 0.824 | 0.877 | 0.845 | 0.82 | 0.982
NCI-H1944 | 0.251 | 0.239 | 0.203 | 0.245 | 0.959 | 0.916 | 0.861 | 0.967 | 0.988
NCI-H1703 |  |  |  |  | 0.349 | 0.318 | 0.325 | 0.395 | 0.355
Calu-6 |  |  |  |  | 0.953 | 0.921 | 0.851 | 0.884 | 0.826
EBC-1 |  |  |  |  | 0.1 | 0.0945 | 0.109 | 0.111 | 0.132
SW 1573 | 0.15 | 0.16 | 0.172 | 0.182 | 0.772 | 0.905 | 0.93 | 0.936 | 1.08
A-427 | 0.234 | 0.192 | 0.173 | 0.198 | 1.04 | 1.05 | 1.06 | 1.16 | 1.23
NCI-H2347 | 0.606 | 0.581 | 0.512 | 0.502 | 0.85 | 0.429 | 1.14 | 0.614 | 1.86
NCI-H1355 | 0.551 | 0.438 | 0.323 | 0.526 | 1.02 | 0.96 | 1.02 | 1.01 | 1.03
NCI-H358 | 0.0856 | 0.0931 | 0.0786 | 0.0689 | 0.599 | 0.712 | 0.67 | 0.807 | 0.629
PC-3 [JPC-3] | 0.915 | 0.882 | 0.843 | 0.887 | 1.01 | 1.06 | 1.06 | 1.03 | 1.01
NCI-H2228 | 0.258 | 0.248 | 0.235 | 0.178 | 0.995 | 0.937 | 0.902 | 1.02 | 0.796
HOP-62 | 0.371 | 0.393 | 0.298 | 0.337 | 1.17 | 1.1 | 1.02 | 1.1 | 1.21
HARA | 0.367 | 0.103 | 0.0758 | 0.79 | 0.94 | 0.801 | 0.906 | 0.915 | 0.881

Cell Line | relative viability ([1]; first compound 0.04 µM) | relative viability ([1]; first compound 0.1265 µM) | relative viability ([1]; first compound 0.4 µM) | relative viability ([1]; first compound 1.265 µM) | relative viability ([2]; first compound 0.01 µM) | relative viability ([2]; first compound 0.03162 µM) | relative viability ([2]; first compound 0.1 µM) | relative viability ([2]; first compound 0.3162 µM) | relative viability ([2]; first compound 1 µM)
NCI-H838 | 0.249 | 0.221 | 0.166 | 0.259 | 1.17 | 1.06 | 1.07 | 1.14 | 1.09
NCI-H1755 | 0.558 | 0.528 | 0.472 | 0.545 | 0.904 | 0.914 | 0.925 | 1.01 | 0.842
HCC-78 | 0.37 | 0.27 | 0.308 | 0.33 | 0.665 | 0.637 | 0.507 | 0.514 | 0.678
IA-LM |  |  |  |  | 1.12 | 1.1 | 1.23 | 1.07 | 1.19
NCI-H322M | 0.464 | 0.347 | 0.361 | 0.391 | 1.09 | 0.998 | 0.979 | 0.946 | 1.06
NCI-H3122 | 0.373 | 0.541 | 0.219 | 0.306 | 0.951 | 0.938 | 0.821 | 1.01 | 0.986
COR-L23 | 0.195 | 0.23 | 0.131 | 0.107 | 0.993 | 1.06 | 0.992 | 0.964 | 0.955
NCI-H2087 | 0.231 | 0.28 | 0.159 | 0.209 | 1.02 | 0.937 | 1.2 | 1.23 | 1.11
LC-2-ad | 0.403 | 0.393 | 0.288 | 0.296 | 0.875 | 0.988 | 0.893 | 0.984 | 1.02
NCI-H1915 | 0.473 | 0.418 | 0.407 | 0.415 | 1.07 | 1.06 | 1.09 | 1.14 | 1.06
NCI-H1793 | 0.631 | 0.283 |  | 0.789 | 0.815 | 0.566 | 0.721 | 0.591 | 0.805
NCI-H2023 | 0.337 | 0.31 | 0.174 | 0.118 | 0.849 | 0.838 | 0.837 | 0.911 | 0.927
COR-L 105 | 0.373 | 0.332 | 0.426 | 0.3 | 1.2 | 1.03 | 1.16 | 0.821 | 1.42
RERF-LC-KJ | 0.544 | 0.506 | 0.33 | 0.236 | 0.876 | 0.866 | 0.848 | 0.864 | 0.892
LXF-289 | 0.167 | 0.121 | 0.14 | 0.14 | 1 | 0.952 | 0.924 | 1.03 | 0.987
PC-14 | 0.572 | 0.587 | 0.515 | 0.464 | 0.922 | 0.997 | 1 | 1.01 | 1.06
NCI-H650 | 0.714 | 0.479 | 0.523 | 0.398 | 1.05 |  | 1.02 | 0.974 | 1.02
NCI-H1666 | 0.623 | 0.558 | 0.465 | 0.415 | 0.979 | 0.956 | 0.947 | 1.03 | 1.01
NCI-H2085 | 0.892 | 0.795 | 0.664 | 0.92 | 0.896 | 1.22 | 0.973 | 1.07 | 1.03
